# Reference: patent US7973051B2 (Hoffman-La Roche Inc., priority 2007, dated 2011)
# Biological target: T1, human liver FBPase (Homo sapiens, UniProt P09467)
# T1 construct: made in house; host or cells: E. coli
# T1 sequence (P09467 2-338 limits assumed): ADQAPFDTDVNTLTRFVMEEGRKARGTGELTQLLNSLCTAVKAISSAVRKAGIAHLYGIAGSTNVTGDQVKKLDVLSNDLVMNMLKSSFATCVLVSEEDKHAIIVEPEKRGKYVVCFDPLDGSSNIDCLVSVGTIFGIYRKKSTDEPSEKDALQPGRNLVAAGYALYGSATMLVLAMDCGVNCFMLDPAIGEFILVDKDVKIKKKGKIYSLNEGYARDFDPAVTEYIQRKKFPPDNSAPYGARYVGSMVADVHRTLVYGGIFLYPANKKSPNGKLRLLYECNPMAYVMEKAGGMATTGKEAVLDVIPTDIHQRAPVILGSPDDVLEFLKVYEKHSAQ
# Experiment: FBPase assay: inorganic phosphate release (malachite green)
# Type: biochemical
# Settings: recombinant human liver FBPase, 50 μM fructose-1,6-bisphosphate, read-out at 620 nm
# Outline: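 Recombinant human liver FBPase (E. coli-expressed, >90% pure), 25 ng per reaction, with 50 μM fructose-1,6-bisphosphate in 50 mM HEPES-KOH pH 7.2, 2 mM MgCl2, 2 mM EDTA, 1 mM DTT, 1% DMSO. After 50 min at room temperature, released phosphate was complexed with malachite green/ammonium molybdate and read at 620 nm.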
row,Structure (SMILES),IC50 [nM]
1,"O=C(Nc1ncc(Br)s1)NS(=O)(=O)c1cc2cccc(OCc3ccccc3)c2s1 [Example 37, 7-(Benzyloxy)-N-[(5-bromo-1,3-thiazol-2-yl)carbamoyl]-1-benzothiophene-2-sulfonamide]",972
2,"O=C(Nc1ncc(Br)s1)NS(=O)(=O)c1csc2ccc(Cl)cc12 [Example 12, N-[(5-Bromo-1,3-thiazol-2-yl)carbamoyl]-5-chloro-1-benzothiophene-3-sulfonamide]",370
3,"Cc1ccc2scc(S(=O)(=O)NC(=O)Nc3ncc(Br)s3)c2c1 [Example 11, N-[(5-Bromo-1,3-thiazol-2-yl)carbamoyl]-5-methyl-1-benzothiophene-3-sulfonamide]",624
4,"COCCc1sc(S(=O)(=O)NC(=O)Nc2ncc(OC)s2)cc1C [Example 97, 5-(2-Methoxyethyl)-N-[(5-methoxy-1,3-thiazol-2-yl)carbamoyl]-4-methylthiophene-2-sulfonamide]",652
5,"O=C(Nc1ncc(Br)s1)NS(=O)(=O)c1csc2ccccc12 [Example 4, N-[(5-Bromo-1,3-thiazol-2-yl)carbamoyl]-1-benzothiophene-3-sulfonamide]",212
6,"CCc1nc(NC(=O)NS(=O)(=O)c2cc(C)c(CCOC(C)=O)s2)sc1CC [Example 67, 2-[5-({[(4,5-Diethyl-1,3-thiazol-2-yl)carbamoyl]amino}sulfonyl)-3-methyl-2-thienyl]ethyl acetate]",215
7,"CC(=O)OCCc1sc(S(=O)(=O)NC(=O)Nc2nc(-c3ccccc3)c(C)s2)cc1C [Example 73, 2-[3-Methyl-5-({[(5-methyl-4-phenyl-1,3-thiazol-2-yl)carbamoyl]amino}sulfonyl)-2-thienyl]ethyl acetate]",128
8,"Cn1cc(S(=O)(=O)NC(=O)Nc2ncc(Br)s2)c2ccc(OCc3ccccc3)cc21 [Example 28, 6-(Benzyloxy)-N-[(5-bromo-1,3-thiazol-2-yl)carbamoyl]-1-methyl-1H-indole-3-sulfonamide]",363
9,"COCCOc1cccc2c(S(=O)(=O)NC(=O)Nc3ncc(Br)s3)cn(C)c12 [Example 42, N-[(5-bromo-1,3-thiazol-2-yl)carbamoyl]-7-(2-methoxyethoxy)-1-methyl-1H-indole-3-sulfonamide]",375
10,"COCCc1sc(S(=O)(=O)NC(=O)Nc2nc3cc(OC)ccc3s2)cc1C [Example 45, N-[(5-Methoxy-1,3-benzothiazol-2-yl)carbamoyl]-5-(2-methoxyethyl)-4-methylthiophene-2-sulfonamide]",402
11,"COc1cnc(NC(=O)NS(=O)(=O)c2cn(C)c3c(OCCOC(C)=O)cccc23)s1 [Example 46, 2-{[3-({[(5-Methoxy-1,3-thiazol-2-yl)carbamoyl]amino}sulfonyl)-1-methyl-1H-indol-7-yl]oxy}ethyl acetate]",3500
12,"Cc1cc(S(=O)(=O)NC(=O)Nc2nc(-c3ccccc3)c(C)s2)sc1CCO [Example 76, 5-(2-Hydroxyethyl)-4-methyl-N-[(5-methyl-4-phenyl-1,3-thiazol-2-yl)carbamoyl]thiophene-2-sulfonamide]",280
